From patent US20050148838A1, “Pharmaceutical discovery and development” (priority 2002, published 2005)

Assays:
[1] = Coulometric EC-MS (voltammetric mass spectrometry), Phase I type EC oxidation; type: physicochemical; settings: per product ion
From the text: Referring to FIG. 1A, a Model 1100 LC/MSD single quadrupole mass spectrometer 10 (Agilent Technologies, Palo Alto, Calif., USA) was used in combination with a Coulochem® III ECD 12 and Model 5021 coulometric cell 14 (ESA Inc., Chelmsford, Mass., USA).
Compounds are characterized via automated sequences, in which EC potential is changed from, e.g., 0-1200 mV(vs. Pd) in increments of, e.g., 200 mV. EC current and MS ion abundance at specific mass-to-charge ratios (m/z) is monitored. In accordance with the present invention, EC (e.g., coulometric, or amperometric) and reaction product profiles for various drug candidates can be obtained reproducibly. Peak area for parent compounds is inversely proportional to EC response with concomitant formation of reaction products.

[2] = EC-MS oxidation with co-injected glutathione (Phase II type conjugation of EC-generated electrophiles)
Protocol: Compounds (200 ng each), diluted in mobile phase (50% aqueous methanol with added electrolyte), were introduced into the system by FIA with a solvent flow rate of 0.1 ml /minute. Compounds undergoing rapid electrolysis and products were monitored by MS. Each compound was analyzed at several oxidative potentials (e.g., −100, 300, 700, 1100 mV vs. Pd reference). Substrate-product pairs were used to aid in the study of Phase I type product formation as a function of potential (i.e. voltammetric mass spectrometry, VMS).
For Phase I type EC transformation studies, changes in EC current, and the corresponding consumption (oxidation) of substrate and associated product formation were monitored as a function of electrode potential. In these studies a solvent flow rate of 0.1 ml/min. was used with ESI and a single analysis was complete in less than 2.5 min. To study both Phase I oxidative reactions and potential-dependent covalent binding (Phase II) total time for characterization of each compound required approximately 15 min. (6 analyses/compound).
To further examine these products, nucleophilic compounds were added to each solution and co-injected with test compounds to investigate the capability of EC-MS to model metabolic activation and resultant reactions with nucleophiles.

| Compound | E½ (½ wave potential for product formation) [1] [mV vs. Pd] | glutathionyl addition products formed on EC oxidation [2] |
| --- | --- | --- |
| COc1c(O)ccc2c1CC[C@@H]1[C@@H]2CC[C@]2(C)[C@@H](O)CC[C@@H]12 [4-Methoxyestradiol] | 450 | – |
| Cc1cc(C(C)(C)C)c(O)c(C(C)(C)C)c1 [BHT] | – | mono-glutathionyl addition product |
| CSCC[C@H](N)C(=O)O [Methionine] | 1100 | – |
| C[C@]12CC[C@@H]3c4ccc(O)c(O)c4CC[C@H]3[C@@H]1CC[C@@H]2O [4-Hydroxyestradiol] | 250 | – |
| CC(C)NCC(O)COc1cccc2ccccc12 (stereo not shown) [Propranolol] | 1000 | – |
| N[C@@H](CCS)C(=O)O [Homocysteine] | 1100 | – |
| CN(C)CCCN1c2ccccc2CCc2ccccc21 [Imipramine] | 650 | – |
| COc1cc2c(cc1O)CC[C@@H]1[C@@H]2CC[C@]2(C)[C@@H](O)CC[C@@H]12 [2-Methoxyestradiol] | 450 | – |
| C[C@]12CC[C@@H]3c4cc(O)c(O)cc4CC[C@H]3[C@@H]1CC[C@@H]2O [2-Hydroxyestradiol] | 250 | – |
| CCCCN1C[C@H](O)[C@@H](O)[C@H](O)[C@H]1CO [N-butyldeoxynojirimycin] | 1000 | – |
